pIC50: −log10 of the molar value.
Legend:
D(4) dopamine receptor = molecular target: T1, D(4) dopamine receptor (Homo sapiens, UniProt P21917); assay: DRUGMATRIX: Dopamine D4.2 radioligand binding (ligand: [3H] Spiperone); assay type: cell membranes, CHO-K1, Membrane; conditions: cho-k1; Not Active = under 50% inhibition at 10 µM
T1 sequence (P21917 whole entry): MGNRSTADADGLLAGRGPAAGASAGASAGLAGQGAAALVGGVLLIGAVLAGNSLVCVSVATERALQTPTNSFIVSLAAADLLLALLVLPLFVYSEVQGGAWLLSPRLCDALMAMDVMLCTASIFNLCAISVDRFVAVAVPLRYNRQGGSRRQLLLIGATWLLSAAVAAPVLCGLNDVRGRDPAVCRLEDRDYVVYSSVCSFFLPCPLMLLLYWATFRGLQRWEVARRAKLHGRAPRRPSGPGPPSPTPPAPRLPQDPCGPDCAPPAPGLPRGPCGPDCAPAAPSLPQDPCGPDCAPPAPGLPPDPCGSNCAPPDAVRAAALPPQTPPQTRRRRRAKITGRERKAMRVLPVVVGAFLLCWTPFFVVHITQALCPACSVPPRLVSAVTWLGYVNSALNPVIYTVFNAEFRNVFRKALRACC

[1] = molecular target: Protein phosphatase 3 catalytic subunit alpha (Homo sapiens, UniProt Q08209); set-up: species or system Escherichia coli;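 also: inhibition of calcineurin (PP2B) enzyme activity, measured with DiFMUP as the substrate; in other assays of this panel Not Active means under 50% inhibition at 10 µM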
Vasopressin V1a receptor = Vasopressin V1a receptor (Homo sapiens, UniProt P37288); assay type: cell membranes, Membrane; conditions: hek293; also: in other assays of this panel Not Active means under 50% inhibition at 10 µM
Chain of Vasopressin V1a receptor (P37288 whole entry): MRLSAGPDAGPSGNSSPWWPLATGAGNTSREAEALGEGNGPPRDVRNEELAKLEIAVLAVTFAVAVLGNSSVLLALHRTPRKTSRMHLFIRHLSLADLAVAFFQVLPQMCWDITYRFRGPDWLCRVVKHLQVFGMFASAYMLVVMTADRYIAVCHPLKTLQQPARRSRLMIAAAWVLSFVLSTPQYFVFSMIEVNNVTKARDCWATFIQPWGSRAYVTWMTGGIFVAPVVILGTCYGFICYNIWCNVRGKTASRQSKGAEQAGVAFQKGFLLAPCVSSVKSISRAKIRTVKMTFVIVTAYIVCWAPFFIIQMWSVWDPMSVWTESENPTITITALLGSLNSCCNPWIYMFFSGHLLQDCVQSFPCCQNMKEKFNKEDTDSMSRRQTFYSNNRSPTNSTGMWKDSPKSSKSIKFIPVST

Caspase-1 = molecular target: T2, Caspase-1 (Homo sapiens, UniProt P29466); set-up: species or system Escherichia coli;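 also: Caspase-1 enzyme inhibition assay with a peptide substrate; in other assays of this panel Not Active means under 50% inhibition at 10 µM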
T2 sequence (P29466 whole entry): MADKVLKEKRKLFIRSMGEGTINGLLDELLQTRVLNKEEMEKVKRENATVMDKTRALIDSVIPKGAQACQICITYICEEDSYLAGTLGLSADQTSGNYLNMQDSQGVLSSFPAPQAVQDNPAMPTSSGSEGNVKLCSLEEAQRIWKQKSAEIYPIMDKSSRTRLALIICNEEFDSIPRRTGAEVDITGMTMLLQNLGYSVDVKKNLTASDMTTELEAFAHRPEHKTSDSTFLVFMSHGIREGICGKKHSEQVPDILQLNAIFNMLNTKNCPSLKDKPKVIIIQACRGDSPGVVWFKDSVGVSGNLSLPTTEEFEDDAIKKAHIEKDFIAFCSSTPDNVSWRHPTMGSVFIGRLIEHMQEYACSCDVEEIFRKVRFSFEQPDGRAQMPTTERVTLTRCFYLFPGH

[2] = molecular target: Prostaglandin G/H synthase 1 (Homo sapiens, UniProt P23219); assay: biochemical; assay type: tissue-based, Platelet; conditions: for IC50: platelet;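 as to all read-outs here: inhibition of COX-1 enzyme activity, with arachidonic acid supplied as substrate; in other assays of this panel Not Active means under 50% inhibition at 10 µM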
Chain of Prostaglandin G/H synthase 1 (P23219 whole entry): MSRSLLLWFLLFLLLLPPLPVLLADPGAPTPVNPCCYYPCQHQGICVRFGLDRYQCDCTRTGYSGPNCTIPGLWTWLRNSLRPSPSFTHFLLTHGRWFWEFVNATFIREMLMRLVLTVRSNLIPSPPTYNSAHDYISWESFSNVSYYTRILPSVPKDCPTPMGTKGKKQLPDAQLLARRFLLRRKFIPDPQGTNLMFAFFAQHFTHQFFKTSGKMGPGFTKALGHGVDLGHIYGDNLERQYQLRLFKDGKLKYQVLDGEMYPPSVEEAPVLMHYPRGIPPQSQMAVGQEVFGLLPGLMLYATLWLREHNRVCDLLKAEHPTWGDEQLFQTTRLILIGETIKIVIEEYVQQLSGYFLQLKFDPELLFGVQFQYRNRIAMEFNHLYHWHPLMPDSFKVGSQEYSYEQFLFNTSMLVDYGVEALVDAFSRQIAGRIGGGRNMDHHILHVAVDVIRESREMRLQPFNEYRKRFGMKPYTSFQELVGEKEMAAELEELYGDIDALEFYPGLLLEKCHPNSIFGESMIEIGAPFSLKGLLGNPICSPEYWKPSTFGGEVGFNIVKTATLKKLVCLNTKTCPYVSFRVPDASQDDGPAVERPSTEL

[3] = DRUGMATRIX: Phosphodiesterase PDE4 enzyme inhibition (substrate: [3H]cAMP + cAMP); conditions: u-937, Not Active = under 50% inhibition at 10 µM
[4] = molecular target: Protein kinase C alpha type (Homo sapiens, UniProt P17252); assay type: cell-based; conditions: sf9
[5] = molecular target: Receptor tyrosine-protein kinase erbB-2 (Homo sapiens, UniProt P04626); assay: biochemical; assay type: cell-based, Insect cells; conditions: insect cells
Chain of Receptor tyrosine-protein kinase erbB-2 (P04626 whole entry): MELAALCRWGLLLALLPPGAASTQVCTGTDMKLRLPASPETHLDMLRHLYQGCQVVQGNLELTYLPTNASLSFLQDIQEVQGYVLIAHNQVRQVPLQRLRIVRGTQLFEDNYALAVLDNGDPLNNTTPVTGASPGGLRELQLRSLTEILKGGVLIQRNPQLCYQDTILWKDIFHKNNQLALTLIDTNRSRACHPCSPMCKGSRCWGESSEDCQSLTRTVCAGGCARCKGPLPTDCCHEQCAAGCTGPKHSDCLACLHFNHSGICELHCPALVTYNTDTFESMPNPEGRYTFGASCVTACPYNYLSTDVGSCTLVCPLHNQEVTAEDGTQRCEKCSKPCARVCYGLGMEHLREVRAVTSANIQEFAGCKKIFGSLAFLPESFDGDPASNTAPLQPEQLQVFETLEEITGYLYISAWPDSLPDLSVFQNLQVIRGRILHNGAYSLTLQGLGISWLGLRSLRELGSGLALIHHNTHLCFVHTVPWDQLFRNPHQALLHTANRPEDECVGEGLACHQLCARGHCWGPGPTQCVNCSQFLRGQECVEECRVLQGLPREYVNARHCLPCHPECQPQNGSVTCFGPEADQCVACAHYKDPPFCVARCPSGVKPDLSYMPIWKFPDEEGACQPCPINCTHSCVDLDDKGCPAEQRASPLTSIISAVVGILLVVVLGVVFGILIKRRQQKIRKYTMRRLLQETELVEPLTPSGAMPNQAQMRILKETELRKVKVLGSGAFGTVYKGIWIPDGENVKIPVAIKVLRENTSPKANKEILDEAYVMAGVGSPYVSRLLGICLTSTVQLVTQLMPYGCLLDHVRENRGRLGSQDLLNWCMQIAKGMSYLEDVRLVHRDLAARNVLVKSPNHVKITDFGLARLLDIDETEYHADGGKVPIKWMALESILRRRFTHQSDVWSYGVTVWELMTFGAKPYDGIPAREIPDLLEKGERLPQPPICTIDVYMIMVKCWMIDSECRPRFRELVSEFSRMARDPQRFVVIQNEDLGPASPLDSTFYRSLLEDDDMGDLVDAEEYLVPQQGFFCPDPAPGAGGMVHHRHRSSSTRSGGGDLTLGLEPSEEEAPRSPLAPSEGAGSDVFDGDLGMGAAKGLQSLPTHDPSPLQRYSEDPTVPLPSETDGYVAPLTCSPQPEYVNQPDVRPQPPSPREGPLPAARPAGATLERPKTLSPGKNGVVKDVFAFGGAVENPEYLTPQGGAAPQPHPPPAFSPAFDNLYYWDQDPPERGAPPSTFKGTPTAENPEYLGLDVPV

SMILES | IC50 (D(4) dopamine receptor) | IC50 [1] | IC50 (Vasopressin V1a receptor) | IC50 (Caspase-1) | IC50 [2] | IC50 [3] | Ki [3] | IC50 [4] | IC50 [5] | pIC50 ([2]; read-out: IC50) | pIC50 ([3]; read-out: IC50)
Cc1cn[nH]c1 [FOMEPIZOLE] | Not Active | Not Active | Not Active | Not Active | Not Active | Not Active | Not Active | Not Active | Not Active |  | 
NC[C@@H]1O[C@H](O[C@H]2[C@@H](O)[C@H](O[C@@H]3[C@@H](O)[C@H](N)C[C@H](N)[C@H]3O[C@H]3O[C@H](CN)[C@@H](O)[C@H](O)[C@H]3N)O[C@@H]2CO)[C@H](N)[C@@H](O)[C@@H]1O [FRAMYCETIN] | Not Active | Not Active | Not Active | Not Active | Not Active | Not Active | Not Active | Not Active | Not Active |  | 
C[C@H]([C@](O)(Cn1cncn1)c1ccc(F)cc1F)S(C)(=O)=O [GENACONAZOLE] | Not Active | Not Active | Not Active | Not Active | Not Active | Not Active | Not Active | Not Active | Not Active |  | 
Cc1c(F)c(N2CCNC(C)C2)cc2c1c(=O)c(C(=O)O)cn2C1CC1 (stereo not drawn) [GREPAFLOXACIN] | Not Active | Not Active | Not Active | Not Active | Not Active | Not Active | Not Active | Not Active | Not Active |  | 
COc1ccccc1OCC(O)CO (stereo not drawn) [GUAIFENESIN] | Not Active | Not Active | Not Active | Not Active | Not Active | Not Active | Not Active | Not Active | Not Active |  | 
N=C(N)N/N=C/c1c(Cl)cccc1Cl [GUANABENZ] | Not Active | Not Active | Not Active | Not Active | Not Active | Not Active | Not Active | Not Active | Not Active |  | 
C[C@]12CCC(=O)C=C1CC[C@@H]1[C@@H]2[C@@H](O)C[C@@]2(C)[C@H]1CC[C@]2(O)C(=O)CO [HYDROCORTISONE] | Not Active | Not Active | Not Active | Not Active | Not Active | Not Active | Not Active | Not Active | Not Active |  | 
C/C=C\c1ccc(O)c(OC)c1 [ISOEUGENOL] | Not Active | Not Active | Not Active | Not Active | Not Active | Not Active | Not Active | Not Active | Not Active |  | 
NC[C@H]1O[C@H](O[C@H]2[C@H](O)[C@@H](O[C@H]3O[C@H](CO)[C@@H](O)[C@H](N)[C@H]3O)[C@H](N)C[C@@H]2N)[C@H](O)[C@@H](O)[C@@H]1O [KANAMYCIN] | Not Active | Not Active | Not Active | Not Active | Not Active | Not Active | Not Active | Not Active | Not Active |  | 
CC[C@H](C)C(=O)O[C@H]1C[C@@H](C)C=C2C=C[C@H](C)[C@H](CC[C@@H]3C[C@@H](O)CC(=O)O3)[C@H]21 [LOVASTATIN] | Not Active | Not Active | Not Active | Not Active | Not Active | Not Active | Not Active | Not Active | Not Active |  | 
CC(C(=O)O)c1ccc(CC2CCCC2=O)cc1 (stereo not drawn) [LOXOPROFEN] | Not Active | Not Active | Not Active | Not Active | Not Active | Not Active | Not Active | Not Active | Not Active |  | 
Cc1cccc(Nc2ccccc2C(=O)O)c1C [MEFENAMIC ACID] | Not Active | Not Active | Not Active | Not Active |  | Not Active | Not Active | Not Active | Not Active | 6.94 | 
CC(=O)O[C@]1(C(C)=O)CC[C@H]2[C@@H]3C=C(C)C4=CC(=O)CC[C@]4(C)[C@H]3CC[C@@]21C [MEGESTROL ACETATE] | Not Active | Not Active | Not Active | Not Active | Not Active | Not Active | Not Active | Not Active | Not Active |  | 
COc1ccccc1OCC(O)COC(N)=O (stereo not drawn) [METHOCARBAMOL] | Not Active | Not Active | Not Active | Not Active | Not Active | Not Active | Not Active | Not Active | Not Active |  | 
CN(Cc1cnc2nc(N)nc(N)c2n1)c1ccc(C(=O)N[C@@H](CCC(=O)O)C(=O)O)cc1 [METHOTREXATE] | Not Active | Not Active | Not Active | Not Active | Not Active | Not Active | Not Active | Not Active | Not Active |  | 
COC(=O)c1ccccc1O [METHYL SALICYLATE] | Not Active | Not Active | Not Active | Not Active | Not Active | Not Active | Not Active | Not Active | Not Active |  | 
COc1ccc2cc(CCC(C)=O)ccc2c1 [NABUMETONE] | Not Active | Not Active | Not Active | Not Active | Not Active | Not Active | Not Active | Not Active | Not Active |  | 
O=C(O)c1cccnc1 [NIACIN] | Not Active | Not Active | Not Active | Not Active | Not Active | Not Active | Not Active | Not Active | Not Active |  | 
CNC(=C[N+](=O)[O-])NCCSCc1csc(CN(C)C)n1 [NIZATIDINE] | Not Active | Not Active | Not Active | Not Active | Not Active | Not Active | Not Active | Not Active | Not Active |  | 
C[C@]12C/C(=C/O)C(=O)C[C@@H]1CC[C@@H]1[C@@H]2CC[C@@]2(C)[C@H]1CC[C@]2(C)O [OXYMETHOLONE] | Not Active | Not Active | Not Active | Not Active | Not Active | Not Active | Not Active | Not Active | Not Active |  | 
CC(C)(CO)C(O)C(=O)NCCCO (stereo not drawn) [PANTHENOL] | Not Active | Not Active | Not Active | Not Active | Not Active | Not Active | Not Active | Not Active | Not Active |  | 
COc1ccc(Cc2nccc3cc(OC)c(OC)cc23)cc1OC [PAPAVERINE] | Not Active | Not Active | Not Active | Not Active | Not Active |  |  | Not Active | Not Active |  | 6.09
OCCN1CCN(CCCN2c3ccccc3Sc3ccc(Cl)cc32)CC1 [PERPHENAZINE] | Not Active | Not Active | Not Active | Not Active | Not Active | Not Active | Not Active | Not Active | Not Active |  | 
CCCCC1C(=O)N(c2ccccc2)N(c2ccccc2)C1=O [PHENYLBUTAZONE] | Not Active | Not Active | Not Active | Not Active | Not Active | Not Active | Not Active | Not Active | Not Active |  | 
Cc1cccc(Nc2cc(Cl)nc(SCC(=O)O)n2)c1C [PIRINIXIC ACID] | Not Active | Not Active | Not Active | Not Active | Not Active | Not Active | Not Active | Not Active | Not Active |  | 
CC[C@H](C)C(=O)O[C@H]1C[C@H](O)C=C2C=C[C@H](C)[C@H](CC[C@@H](O)C[C@@H](O)CC(=O)O)[C@H]21 [PRAVASTATIN] | Not Active | Not Active | Not Active | Not Active | Not Active | Not Active | Not Active | Not Active | Not Active |  | 

Source: ChEMBL document CHEMBL1909046, “DrugMatrix in vitro pharmacology data”
